# Assay results: PubChem BioAssay (NCI)
#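 Grown in 96-well plates, cells were treated for 48 hours with each compound at five concentrations. Insufficient inhibition: endpoint recorded as highest concentration tested. TGI denotes the concentration required for complete inhibition of growth.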
# Key:
# Experiment in all cases: DTP human tumour cell line panel, 48 h
# MCF7 breast = system: MCF7 breast
# A498 renal = system: A498 renal
# OVCAR-5 ovarian = system: OVCAR-5 ovarian
# HCT-116 colon = system: HCT-116 colon
# HOP-62 NSCLC = system: HOP-62 NSCLC
# EKVX NSCLC = system: EKVX NSCLC
# SR leukemia = system: SR leukemia
# MOLT-4 leukemia = system: MOLT-4 leukemia
# HT29 colon = system: HT29 colon
# DU-145 prostate = system: DU-145 prostate
# M14 melanoma = system: M14 melanoma
# MALME-3M melanoma = system: MALME-3M melanoma
# COLO 205 colon = system: COLO 205 colon
# SK-MEL-2 melanoma = system: SK-MEL-2 melanoma
# OVCAR-8 ovarian = system: OVCAR-8 ovarian
# SNB-75 CNS = system: SNB-75 CNS
# K-562 leukemia = system: K-562 leukemia
# SN12C renal = system: SN12C renal
# SF-268 CNS = system: SF-268 CNS
# HOP-92 NSCLC = system: HOP-92 NSCLC
# IGROV1 ovarian = system: IGROV1 ovarian
# NCI-H522 lung = system: NCI-H522 lung
# TK-10 renal = system: TK-10 renal
# UO-31 renal = system: UO-31 renal
# PC-3 prostate = system: PC-3 prostate
# T-47D breast = system: T-47D breast
# NCI-H23 lung = system: NCI-H23 lung
# OVCAR-3 ovarian = system: OVCAR-3 ovarian
# MDA-MB-435 = system: MDA-MB-435
# 786-0 renal = system: 786-0 renal
# CCRF-CEM leukemia = system: CCRF-CEM leukemia
# HCC-2998 colon = system: HCC-2998 colon
# KM12 colon = system: KM12 colon
# LOX IMVI melanoma = system: LOX IMVI melanoma
# UACC-62 melanoma = system: UACC-62 melanoma
# SW-620 colon = system: SW-620 colon
# RXF 393 renal = system: RXF 393 renal
# ACHN renal = system: ACHN renal
# A549 NSCLC = system: A549 NSCLC
# HS 578T breast = system: HS 578T breast
# SK-MEL-5 melanoma = system: SK-MEL-5 melanoma
# CAKI-1 renal = system: CAKI-1 renal
# OVCAR-4 ovarian = system: OVCAR-4 ovarian
# SF-539 CNS = system: SF-539 CNS
# UACC-257 melanoma = system: UACC-257 melanoma
# BT-549 breast = system: BT-549 breast
# NCI/ADR-RES ovarian = system: NCI/ADR-RES ovarian
# HCT-15 colon = system: HCT-15 colon
# SK-MEL-28 melanoma = system: SK-MEL-28 melanoma
# MDA-N = system: MDA-N
# HL-60(TB) leukemia = system: HL-60(TB) leukemia
# RPMI-8226 leukemia = system: RPMI-8226 leukemia
smiles,measurement,setting,value
C(=Nc1ccc(-c2nc3ccccc3[nH]2)cc1)c1ccc[nH]1,TGI,MCF7 breast,> 100 µM
same,TGI,A498 renal,> 100 µM
same,TGI,OVCAR-5 ovarian,> 100 µM
same,TGI,HCT-116 colon,> 100 µM
same,TGI,HOP-62 NSCLC,> 100 µM
same,TGI,EKVX NSCLC,> 100 µM
same,TGI,SR leukemia,> 100 µM
same,TGI,MOLT-4 leukemia,> 100 µM
same,TGI,HT29 colon,> 100 µM
same,TGI,DU-145 prostate,> 100 µM
same,TGI,M14 melanoma,> 100 µM
same,TGI,MALME-3M melanoma,> 100 µM
same,TGI,COLO 205 colon,> 100 µM
same,TGI,SK-MEL-2 melanoma,> 100 µM
same,TGI,OVCAR-8 ovarian,> 100 µM
same,TGI,SNB-75 CNS,> 100 µM
same,TGI,K-562 leukemia,> 100 µM
same,TGI,SN12C renal,> 100 µM
same,TGI,SF-268 CNS,> 100 µM
same,TGI,HOP-92 NSCLC,> 100 µM
same,TGI,IGROV1 ovarian,> 100 µM
same,TGI,NCI-H522 lung,> 100 µM
same,TGI,TK-10 renal,> 100 µM
same,TGI,UO-31 renal,> 100 µM
same,TGI,PC-3 prostate,> 100 µM
same,TGI,T-47D breast,> 100 µM
same,TGI,NCI-H23 lung,> 100 µM
same,TGI,OVCAR-3 ovarian,> 100 µM
same,TGI,MDA-MB-435,> 100 µM
same,TGI,786-0 renal,> 100 µM
same,TGI,CCRF-CEM leukemia,85.1 µM
same,TGI,HCC-2998 colon,> 100 µM
same,TGI,KM12 colon,> 100 µM
same,TGI,LOX IMVI melanoma,> 100 µM
same,TGI,UACC-62 melanoma,> 100 µM
same,TGI,SW-620 colon,> 100 µM
same,TGI,RXF 393 renal,> 100 µM
same,TGI,ACHN renal,> 100 µM
same,TGI,A549 NSCLC,> 100 µM
same,TGI,HS 578T breast,> 100 µM
same,TGI,SK-MEL-5 melanoma,> 100 µM
same,TGI,CAKI-1 renal,> 100 µM
same,TGI,OVCAR-4 ovarian,> 100 µM
same,TGI,SF-539 CNS,> 100 µM
same,TGI,UACC-257 melanoma,> 100 µM
same,TGI,BT-549 breast,> 100 µM
same,TGI,NCI/ADR-RES ovarian,> 100 µM
same,TGI,HCT-15 colon,> 100 µM
same,TGI,SK-MEL-28 melanoma,> 100 µM
same,TGI,MDA-N,> 100 µM
same,TGI,HL-60(TB) leukemia,20.1 µM
same,TGI,RPMI-8226 leukemia,> 100 µM
